Measured values taken from US11571403B2, “Methods for the treatment of non-alcoholic steatohepatitis” (Eiger Biopharmaceuticals, Inc., priority 2016, dated 2023).

Columns and labels:
[1] = tested on: STAM mouse model for NASH; test: NAFLD Activity Score by HE staining, STAM mouse NASH model (Example 1); assay type: in vivo; conditions: for Steatosis score 0, number of mice: score 0 = <5%; for Steatosis score 0, number of mice / Hepatocyte ballooning score 0, number of mice / Steatosis score 1, number of mice / Lobular inflammation score 1, number of mice / Hepatocyte ballooning score 1, number of mice / Lobular inflammation score 2, number of mice / Lobular inflammation score 3, number of mice / NAS (mean ± SD): 7 to 9 weeks of age; for Hepatocyte ballooning score 0, number of mice: score 0 = None; for Steatosis score 1, number of mice: score 1 = 5-33%; for Lobular inflammation score 1, number of mice: score 1 = <2 foci/200x; for Hepatocyte ballooning score 1, number of mice: score 1 = Few balloon cells; for Lobular inflammation score 2, number of mice: score 2 = 2-4 foci/200x; for Lobular inflammation score 3, number of mice: score 3 = >4 foci/200x
Excerpt: The STAM™ mouse is a model for NASH created by a combination of chemical and dietary interventions in C57BL/6 mice that manifest NASH at about 8 weeks, which progresses to fibrosis at about 12 weeks and then progresses to HCC at about 16 weeks. See, Saito et al., Sci. Rep. 2015, 5:12466.
In the study, the control groups were as follows: (i) Untreated Disease Control—a group of STAM mice injected with streptozotocin (STZ, Sigma-Aldrich, USA) at 2 days old, and fed a high fat diet (HFD, 57 kcal % fat, Cat #HFD32, CLEA Japan, Japan) starting at 4 weeks old; and (ii) Positive Control—a group of STAM mice treated with telmisartan (10 mg/kg QD from 7 to 9 weeks). In addition to these control groups, test groups of STAM mice treated with a low dose of ubenimex (5 mg/kg ubenimex BID from 7 to 9 weeks) or a high dose of ubenimex (25 mg/kg BID from 7 to 9 weeks), were included in the study. The low dose is equivalent to a human dose of 30 mg BID. The high dose is equivalent to a human dose of 150 mg BID. The viability, clinical signs and behavior were monitored daily, including body weight, signs of toxicity, moribundity and mortality. The mice were maintained in a SPF facility under controlled conditions of temperature (23±2° C.), humidity (45±10%), lighting (12-hour artificial light and dark cycles; light from 8:00 to 20:00) and air exchange. A high pressure was maintained in the experimental room to prevent contamination of the facility. The mice were housed in TPX cages (CLEA Japan) with a maximum of 4 mice per case.
All groups of mice were sacrificed at 9 weeks. Once sacrificed, the body weight of each mouse was recorded. The liver of each mouse was removed and weighed. The liver-to-body weight ratio was determined for each mouse. Blood serum levels of CK-18, ALT, and liver triglycerides were determined for each mouse. The livers were then sectioned and stained with hematoxylin and eosin (“HE”) stain, as well as Sirius red staining, to determine liver steatosis (ballooning) and fibrosis, respectively.

[2] = tested on: STAM model of NASH fibrosis; test: Fibrosis area by Sirius red staining, STAM model of NASH with fibrosis (Example 3); assay type: in vivo, mouse
Method: Ubenimex or telmisartan was administered orally in a volume at 10 mL/kg. Ubenimex was administered at a dose of 5 mg/kg once daily or twice daily. Telmisartan was administered at a dose of 5 mg/kg once daily. For HE staining, sections were cut from paraffin blocks of liver tissue prefixed in Bouin's solution and stained with Lillie-Mayer's hematoxylin (Muto Pure Chemicals Co., Ltd., Japan) and eosin solution (Wako Pure Chemical Industries, Ltd., Japan). NAFLD Activity Score (NAS) was calculated according to the criteria of Kleiner (Kleiner et al., Hepatology, 2005, 41:1313). To visualize collagen deposition, Bouin's fixed liver sections were stained using picro-Sirius red solution (Waldeck, Germany). For quantitative analysis of fibrosis area, bright field images of Sirius red-staining sections were captured around the central vein using a digital camera (DFC295; Leica, Germany) at 200-fold magnification, and the positive areas in 5 fields/section were measured using ImageJ software (National Institutes of Health, USA). Study groups: The following study groups were used. Group 1 (Vehicle): 8 NASH mice were orally administered vehicle (RO water) in a volume of 10 mL/kg twice daily from 6 to 11 weeks of age. Group 2 (Ubenimex QD for 5 weeks): 8 NASH mice were orally administered vehicle supplemented with ubenimex at a dose of 5 mg/kg once daily from 6 to 11 weeks of age. Group 3 (Ubenimex BID for 5 weeks): 8 NASH mice were orally administered vehicle supplemented with ubenimex at a dose of 5 mg/kg twice daily from 6 to 11 weeks of age. Group 4 (Ubenimex BID for 2 weeks): 8 NASH mice were orally administered vehicle supplemented with ubenimex at a dose of 5 mg/kg twice daily from 9 to 11 weeks of age. Group 5 (Telmisartan for 5 weeks): 8 NASH mice were orally administered pure water supplemented with telmisartan at a dose of 5 mg/kg once daily from 6 to 11 weeks of age.

Compound: CC(C)C[C@H](NC(=O)[C@@H](O)[C@H](N)Cc1ccccc1)C(=O)O [Ubenimex, (2S)-2-[[(2S,3R)-3-amino-2-hydroxy-4-phenylbutanoyl]amino]-4-methylpentanoic acid]
- Hepatocyte ballooning compared with the control group ([1]; high and low dose ubenimex groups (25 and 5 mg/kg BID, 7 to 9 weeks)): significantly decreased
- Steatosis score 0, number of mice ([1]; ubenimex 5 mg/kg BID): 1
- Hepatocyte ballooning score 0, number of mice ([1]; ubenimex 5 mg/kg BID): 4
- Hepatocyte ballooning score 0, number of mice ([1]; ubenimex 25 mg/kg BID): 5
- Steatosis score 1, number of mice ([1]; ubenimex 5 mg/kg BID): 5
- Steatosis score 1, number of mice ([1]; ubenimex 25 mg/kg BID): 7
- Lobular inflammation score 1, number of mice ([1]; ubenimex 5 mg/kg BID): 1
- Hepatocyte ballooning score 1, number of mice ([1]; ubenimex 5 mg/kg BID): 2
- Hepatocyte ballooning score 1, number of mice ([1]; ubenimex 25 mg/kg BID): 2
- Lobular inflammation score 2, number of mice ([1]; ubenimex 5 mg/kg BID): 3
- Lobular inflammation score 2, number of mice ([1]; ubenimex 25 mg/kg BID): 5
- Lobular inflammation score 3, number of mice ([1]; ubenimex 5 mg/kg BID): 2
- Lobular inflammation score 3, number of mice ([1]; ubenimex 25 mg/kg BID): 2
- NAS (mean ± SD) ([1]; ubenimex 5 mg/kg BID): 3.3 ± 0.5
- NAS (mean ± SD) ([1]; ubenimex 25 mg/kg BID): 3.6 ± 0.5
- Sirius red-positive area (fibrosis area, mean ± SD) ([2]; ubenimex 5 mg/kg BID oral, 6 to 11 weeks of age): 0.88 ± 0.22%
- Sirius red-positive area (fibrosis area, mean ± SD) ([2]; ubenimex 5 mg/kg BID oral, 9 to 11 weeks of age): 0.87 ± 0.14%
- Sirius red-positive area (fibrosis area, mean ± SD) ([2]; ubenimex 5 mg/kg QD oral, 6 to 11 weeks of age): 0.75 ± 0.16%

Compound: CCCc1nc2c(C)cc(-c3nc4ccccc4n3C)cc2n1Cc1ccc(-c2ccccc2C(=O)O)cc1 [Telmisartan, telmisartan]
- Steatosis score 0, number of mice ([1]; telmisartan 10 mg/kg QD): 3
- Hepatocyte ballooning score 0, number of mice ([1]; telmisartan 10 mg/kg QD): 8
- Steatosis score 1, number of mice ([1]; telmisartan 10 mg/kg QD): 5
- Lobular inflammation score 1, number of mice ([1]; telmisartan 10 mg/kg QD): 2
- Lobular inflammation score 2, number of mice ([1]; telmisartan 10 mg/kg QD): 4
- Lobular inflammation score 3, number of mice ([1]; telmisartan 10 mg/kg QD): 2
- NAS (mean ± SD) ([1]; telmisartan 10 mg/kg QD): 2.6 + 0.9
- Sirius red-positive area (fibrosis area, mean ± SD) ([2]; telmisartan 5 mg/kg QD oral, 6 to 11 weeks of age): 0.57 ± 0.14%
